Target: T1, human FXR alpha ligand binding domain (Homo sapiens, UniProt Q96RI1)
T1 construct: made in house; host or cells: E. coli BL21 (DE3), vector pDEST15
T1 sequence (Q96RI1 187-472 isoform Q96RI1-2): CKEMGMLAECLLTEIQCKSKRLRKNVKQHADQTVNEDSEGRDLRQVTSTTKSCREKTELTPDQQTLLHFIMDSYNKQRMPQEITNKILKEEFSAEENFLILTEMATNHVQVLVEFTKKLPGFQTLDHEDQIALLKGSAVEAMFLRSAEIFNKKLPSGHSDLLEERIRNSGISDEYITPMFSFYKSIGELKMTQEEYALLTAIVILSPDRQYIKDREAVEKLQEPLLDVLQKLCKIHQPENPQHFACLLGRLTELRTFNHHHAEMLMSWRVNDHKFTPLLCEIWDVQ
Assay: FRET Activity Assay (ligand mediated cofactor peptide interaction)
Type: biochemical
Conditions: LANCE time-resolved FRET; GST-FXR-LBD with biotinylated SRC-1 peptide (676-700); read-out: agonistic potential EC50
Experimental: Assays FRET Activity Assay Determination of a ligand mediated cofactor peptide interaction to quantify ligand binding to the nuclear receptor FXR was performed as follows: Preparation of human FXR alpha ligand binding domain: The human FXRalpha LBD was expressed in E. coli strain BL21 (DE3) as an N-terminally GST tagged fusion protein. The DNA encoding the FXR ligand binding domain was cloned into vector pDEST15 (Invitrogen). Expression was under control of an IPTG inducible T7 promoter. The amino acid boundaries of the ligand binding domain were amino acids 187-472 of Database entry NM_005123 (RefSeq). Expression and purification of the FXR-LBD: An overnight preculture of a transformed E. coli strain was diluted 1:20 in LB-Ampicillin medium and grown at 30° C. to an optical density of OD600=0.4-0.6. Gene expression was then induced by addition of 0.5 mM IPTG. […] The protein was analysed by SDS-Page.
The method measures the ability of putative ligands to modulate the interaction between the purified bacterial expressed FXR ligand binding domain (LBD) and a synthetic biotinylated peptide based on residues 676-700 of SRC-1 (LCD2, 676-700). […] The ligand binding domain (LBD) of FXR was expressed as fusion protein with GST in BL-21 cells using the vector pDEST15. […] The LANCE signal was detected by a Perkin Elmer VICTOR2VTM Multilabel Counter. […]

- EC50: < 25 nM
SMILES: CC(C)n1nc(C(=O)O)cc1N1CCC(O)(c2ccc(OCc3c(-c4c(Cl)cccc4Cl)noc3C3CC3)cc2Cl)CC1 [Example 1, 5-(4-(2-Chloro-4-((5-cyclopropyl-3-(2,6-dichlorophenyl)isoxazol-4-yl)methoxy)phenyl)-4-hydroxypiperidin-1-yl)-1-isopropyl-1H-pyrazole-3-carboxylic Acid]
